Assay results reported in US20210024482A1, “Novel Group of STAT3 Pathway Inhibitors and Cancer Stem Cell Pathway Inhibitors” (Sumitomo Dainippon Pharma Oncology, Inc., priority 2007, published 2021).
pIC50: −log10 of the molar value.

Experiments:
Assay type in all cases: cell-based
[1] = test system: CD133^+ cells; test: Cleaved-Caspase 3 staining of CD133+ cells; conditions: FIG. 9B
Text: Sorting tumor cells based primarily upon the differential expression of the surface marker(s), such as CD44 or CD133, have accounted for the majority of the highly tumorigenic CSCs described to date. CD133 isolation is based upon the method of Ricci-Vitiani et al., with slight modification. CD133^+ cells were isolated by either fluorescence activated cell sorting (FACS) or magnetic nanoparticle-based separation. Briefly, […] were labeled with CD133/1 (AC133)-PE for FACS-based cell sorting; or with CD133/1 (AC133)-biotin (Miltenyi Biotec, Auburn, Calif.) for magnetic field-based separation using the EasySep® biotin selection kit (Miltenyi Biotec) according to the manufacturer's recommendations. Non-specific labeling was blocked with the supplied FcR blocking reagent and antibody incubations (1:11) were carried out on ice for 15 minutes in PBS with 2% FBS and 1 mM EDTA. Five washes were done for EasySep® isolation, whereas cells were pelleted at 400×g for 5 minutes and resuspended at 2×10^7/mL, before sorting by FACS.
Cells treated with indicated compound for an indicated time were either fixed in 4% formaldehyde or cold methanol for the detection of Annexin V, cleaved caspase 3, or stat3, respectively. Coverslips were air dried and rehydrated in PBS at room temperature for 10 min. […]

[2] = test system: HT29 colon cancer cells; test: Colony formation assay, HT29; conditions: Homo sapiens, HT-29, similar conditions
[3] = test system: DU145 cells; test: Annexin V flow cytometry in DU145 cells; conditions: 5 hours post-treatment, FIG. 11
Description: Cells treated with or without compound were harvested at 5 hours post treatment for Annexin-V staining. Collected cells were washed with PBS and resuspended in Annexin-V-FITC containing buffer and stained according to manufactures directions (Roche). Annexin-V positive cells were determined by Flow cytometry.
Additionally, DU145 cells were first treated with DMSO or the indicated concentrations of compound 401, then stained with Annexin V, and followed by Flow cytometry analysis 5 hours post-treatment.

[4] = test system: CD44^high CSCs; test: Sphere assay with CD44high CSCs; conditions: spheres grown 72 hours before challenge, FIGS. 10A and 10B
Description: A reliable method of measuring the self-renewal capacity of cell population if the ability to be cultured as spheres in the absence of serum or attachment. CD44^high FaDu or Hoechst side population cancer stem cells were cultured in ultra low attachment plates in cancer stem cell media (DMEM/F12, B27 Neurobasal supplement, 20 ng/ml EGF, 10 ng/ml FGF, 4 μg/ml insulin, and 0.4% BSA) to allow spheres formation. Typically, sphere formation was evaluated by microscopy after 10-14 days in culture and spheres with >50 cells were scored.
One of the hallmarks cancer stem cells is their ability to self-renew. A reliable method of measuring the self-renewal capacity of cell populations is the ability to be cultured as spheres in the absence of serum or attachment. To compare the ability of compound 401 to other targeted and chemotherapeutic agents, FACS-isolated CD44^high CSCs were grown as spheres for 72 hours before being challenged with a panel of therapeutic agents. […] Tarceva, Sutent, and Gleevec were added at approximately three times their reported therapeutic concentrations.

[5] = test system: CD34^+ BM Myeloid; test: Colony formation assay, CD34+ bone marrow myeloid lineage; conditions: normal cells, 6 hours incubation
Text: In a similar fashion to PMBCs, CD34^+ bone marrow hematopoietic stem cells were spared when treated with compound 401.

With `CC(=O)c1cc2c(o1)C(=O)c1ccccc1C2=O` [Compound 401, 2-acetylnaphtho[2,3-b]furan-4,9-dione] the “cleaved-Caspase 3 staining” value [1] was “many of the CD133^+ cells become cleaved-Caspase 3 positive”, the pIC50 [2] was > 6.30 and the “Annexin V staining” value [3] was “dose-dependent increase in the Annexin V staining”. For the same compound, the “prevention of sphere proliferation” value [4] was “effective at preventing sphere proliferation” and the pIC50 [5] was < 4.52.
